Experimental data reported in ChEMBL document CHEMBL5154652, “Design, synthesis and anti-hepatocellular carcinoma activity of 3-arylisoquinoline alkaloids” (Eur J Med Chem, 2022).
Activity calls are given as the source filed them. The calls are words filed in the database; no cut-off is given here.

Tests used:
L02 = test: Antiproliferative activity against human L02 cells after 72 hrs by MTT assay; type: functional, cell-based; settings: L02, 72 h
[1] = target: DNA topoisomerase 1 (Homo sapiens) (UniProt P11387); test: Inhibition of DNA topoisomerase 1 (unknown origin) at 25 to 50 uM measured by agar gel electrophoresis relative to control; settings: dose 25-50 µM
DNA topoisomerase 1 (Homo sapiens), sequence (P11387 whole entry): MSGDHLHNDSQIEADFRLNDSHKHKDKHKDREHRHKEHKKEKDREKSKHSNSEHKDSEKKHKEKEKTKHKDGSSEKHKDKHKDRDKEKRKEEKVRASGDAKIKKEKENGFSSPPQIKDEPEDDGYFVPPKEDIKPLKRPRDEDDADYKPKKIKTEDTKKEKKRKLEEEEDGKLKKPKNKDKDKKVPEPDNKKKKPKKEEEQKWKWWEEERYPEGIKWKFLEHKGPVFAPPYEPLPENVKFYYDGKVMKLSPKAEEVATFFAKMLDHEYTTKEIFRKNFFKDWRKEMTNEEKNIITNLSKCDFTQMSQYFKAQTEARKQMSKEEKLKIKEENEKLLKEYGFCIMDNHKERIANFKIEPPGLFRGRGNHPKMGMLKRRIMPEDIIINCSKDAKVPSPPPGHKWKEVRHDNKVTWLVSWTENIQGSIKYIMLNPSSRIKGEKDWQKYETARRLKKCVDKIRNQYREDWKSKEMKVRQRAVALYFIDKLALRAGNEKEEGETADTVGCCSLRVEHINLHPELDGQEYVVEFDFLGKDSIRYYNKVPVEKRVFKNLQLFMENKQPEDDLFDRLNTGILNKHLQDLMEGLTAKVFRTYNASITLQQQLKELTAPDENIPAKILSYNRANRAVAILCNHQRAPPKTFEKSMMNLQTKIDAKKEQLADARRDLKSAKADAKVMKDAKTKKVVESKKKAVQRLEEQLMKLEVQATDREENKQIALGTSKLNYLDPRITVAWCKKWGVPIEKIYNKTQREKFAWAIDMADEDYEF

U-251 = test: Antiproliferative activity against human U-251 cells after 72 hrs by MTT assay; type: functional, cell-based; settings: U-251, 72 h
A549 = test: Antiproliferative activity against human A549 cells after 72 hrs by MTT assay; type: functional, cell-based; settings: A549, 72 h
HL-60 = test: Antiproliferative activity against human HL-60 cells after 72 hrs by MTT assay; type: functional, cell-based; settings: HL-60, 72 h
HT-29 = test: Antiproliferative activity against human HT-29 cells after 72 hrs by MTT assay; type: functional, cell-based; settings: HT-29, 72 h
HepG2 = test: Antiproliferative activity against human HepG2 cells after 72 hrs by MTT assay; type: functional, cell-based; settings: HepG2, 72 h
HCT-116 = test: Antiproliferative activity against human HCT-116 cells after 72 hrs by MTT assay; type: functional, cell-based; settings: HCT-116, 72 h
RKO = test: Antiproliferative activity against human RKO cells after 72 hrs by MTT assay; type: functional, cell-based
SGC-7901 = test: Antiproliferative activity against human SGC-7901 cells after 72 hrs by MTT assay; type: functional, cell-based; settings: SGC-7901, 72 h
MDA-MB-231 = test: Antiproliferative activity against human MDA-MB-231 cells after 72 hrs by MTT assay; type: functional, cell-based; settings: MDA-MB-231, 72 h
Huh-7 = test: Antiproliferative activity against human Huh-7 cells after 72 hrs by MTT assay; type: functional, cell-based; settings: Huh-7, 72 h
SK-HEP1 = test: Antiproliferative activity against human SK-HEP1 cells after 72 hrs by MTT assay; type: functional, cell-based; settings: SK-HEP1, 72 h
SW480 = test: Antiproliferative activity against human SW480 cells after 72 hrs by MTT assay; type: functional, cell-based; settings: SW480, 72 h
HCCLM9 = test: Antiproliferative activity against human HCCLM9 cells after 72 hrs by MTT assay; type: functional, cell-based; settings: HCCLM9, 72 h
HGC-27 = test: Antiproliferative activity against human HGC-27 cells after 72 hrs by MTT assay; type: functional, cell-based; settings: HGC-27, 72 h
BGC-823 = test: Antiproliferative activity against human BGC-823 cells after 72 hrs by MTT assay; type: functional, cell-based; settings: BGC-823, 72 h
MCF7 = test: Antiproliferative activity against human MCF7 cells after 72 hrs by MTT assay; type: functional, cell-based; settings: MCF7, 72 h

Compound | IC50 (L02) [µM] | inhibition [1] | IC50 (U-251) [µM] | IC50 (A549) [µM] | IC50 (HL-60) [µM] | IC50 (HT-29) [µM] | IC50 (HepG2) [µM] | IC50 (HCT-116) [µM] | IC50 (RKO) [µM] | IC50 (SGC-7901) [µM] | IC50 (MDA-MB-231) [µM] | IC50 (Huh-7) [µM] | IC50 (SK-HEP1) [µM] | IC50 (SW480) [µM] | IC50 (HCCLM9) [µM] | IC50 (HGC-27) [µM] | IC50 (BGC-823) [µM] | IC50 (MCF7) [µM]
CN(C)Cc1cc2c(cc1-c1cc3ccc4c(c3cn1)OCO4)OCO2 | > 150 | Active | 24.6 | 17.4 | 115 | 36 | 20.8 | 67.2 | 28.7 | 48.2 | 12.8 | 11.2 | 17.2 | 8.54 | 8.83 | 19.1 |  | 
CNCCc1cc(OC)c(OC)cc1-c1cc2ccc3c(c2cn1)OCO3 | > 150 |  | 43.3 |  | > 150 | 122 |  | > 150 | > 150 | > 150 | 68.7 | 42.9 | 69.9 | 21.8 | 20.2 | 93.9 | 15.8 | 52.8
CNCc1c(-c2cc3c4c(ccc3cn2)OCO4)ccc2c1OCO2 | 74.6 |  |  |  |  | 44.5 | 26.7 | 26.7 | 26.7 |  |  | 20.2 |  | 42.7 | 7.25 |  |  | 
OCc1cc2c(cc1-c1cc3ccc4c(c3cn1)OCO4)OCO2 |  |  |  |  |  | 46.7 |  | 46.7 | 87.4 |  |  | 42.3 |  | 36.9 | 32.7 |  |  | 
CN(C)CCCCc1cc2c(cc1-c1cc3ccc4c(c3cn1)OCO4)OCO2 |  |  | 15 | 81.9 |  | 41.6 | 55.4 | 97 | 93.1 | 39 | 26.6 | 37.8 | 35.6 | 63.2 | 38.5 | 38.9 | 83.5 | 53.6
CN(C=O)CCc1cc2c(cc1-c1cc3ccc4c(c3cn1)OCO4)OCO2 | > 150 |  | 53.4 | 96 | > 150 | > 150 | 74 | 86 | > 150 | > 150 | 60.9 | 63.9 | 145 | > 150 | > 150 | 69 | 79.4 | 130
CNCCc1cc2c(cc1-c1cc3ccc4c(c3cn1)OCO4)OCO2 | > 150 |  | 19.1 |  | 113 | 23 | 45 | > 150 | 63.5 |  | 19.3 | 15.5 | 28.2 | 25.4 | 10 | 20.9 | 25.9 | 49.9
OCc1c(-c2cc3c4c(ccc3cn2)OCO4)ccc2c1OCO2 | > 150 |  |  |  |  | > 150 | > 150 | > 150 | > 150 |  |  | 40.8 |  | > 150 | > 150 |  |  | 
COCCc1cc(OC)c(OC)cc1-c1cc2ccc3c(c2cn1)OCO3 | > 150 |  | > 150 | > 150 | > 150 | > 150 | > 150 | > 150 | > 150 | > 150 | 128 | 77 |  | 105 | > 150 | 120 | > 150 | 32.4
CN(C)CCc1cc2c(cc1-c1cc3ccc4c(c3cn1)OCO4)OCO2 |  |  | 28.5 | 65.2 | 130 | > 150 | 72.5 | > 150 | > 150 | 45.1 | 30.2 | 17.6 | 32.4 | 36.3 | 21 | 78.5 | 33.6 | 61.7
CN(C)CCCc1cc2c(cc1-c1cc3ccc4c(c3cn1)OCO4)OCO2 | > 150 |  | 24.5 | 65.7 | 93.6 | 96.6 | 80.4 | > 150 | 126 | 55.5 | 35.6 | 20 | 38.2 | 40.6 | 15.6 | > 150 | 51.8 | 60.4
CCOC(=O)N(C)CCc1cc2c(cc1-c1cc3ccc4c(c3cn1)OCO4)OCO2 | 149 |  | 51.8 | > 150 | > 150 | 96.6 | 27.3 | > 150 | 91.6 | 28.8 | 36.7 | 19.2 | 103 | 28.6 | 25.1 | 99.8 | 49.9 | 69.7
CNCCCc1cc2c(cc1-c1cc3ccc4c(c3cn1)OCO4)OCO2 | 90.4 |  | 27.7 | 52.1 | > 150 | 41.1 | 35.7 | 80.9 | 106 | 41.6 | 39.5 | 19 | 22.2 | 29.4 | 20.4 | 73.2 | 44.9 | 42.8
CN(C)Cc1c(-c2cc3c4c(ccc3cn2)OCO4)ccc2c1OCO2 | > 150 |  |  |  |  | 46.7 | 46.7 |  | 47 |  |  | 25.5 |  | 74.7 | 12.5 |  |  | 
CNCCCCc1cc2c(cc1-c1cc3ccc4c(c3cn1)OCO4)OCO2 |  |  | 10.8 | 18.7 |  | 27.5 | 23.2 | 57.6 | 81.7 | 20 | 19.6 | 13.7 | 16 | 15.2 | 10.4 | 55.3 | 26.7 | 54.6
COc1cc(CCN(C)C)c(-c2cc3ccc4c(c3cn2)OCO4)cc1OC | > 150 |  | 65.1 | > 150 | > 150 | 146 | > 150 | > 150 | > 150 | 81.9 | 103 | 59.5 |  | 40.6 | 32.4 | > 150 | 31.6 | 94.6
